Measurements taken from patent US8916502B2, “Agent for improving lawn grass qualities” (Cosmo Oil Co., Ltd., priority 2008, dated 2014).

Tests used:
[1] = tested on: bentgrass; assay: Foliage treatment of bentgrass sod in pots: leaf count and L*a*b* colour; format: in vivo; details: 30 days after treatment, 5-aminolevulinic acid hydrochloride 200 mg/10 a and/or prohexadione calcium salt 12.5 g/10 a; for Color system L* / Color system b* / Color system a*: colorimeter; for Color system a*: more negative = greener; for Plant count of lawn grass: foliage treatment 150 L/10 a
Source text: A commercially available bentgrass sod was cut into a circular form having a diameter of 10 cm. Uniform volcanic ash soil (andosol) was introduced into a vessel (1/17,500×10 a) in a sufficient amount per pot, and a liquid fertilizer (Hyponica) was applied thereon in an amount, in terms of nitrogen, of 3 kg-N/10 a. The cut bentgrass sod was transplanted into the pot.

[2] = tested on: Zoysia tenuifolia; assay: Foliage treatment of Zoysia tenuifolia sod in pots: grass height and dry weight of shoots and stems; format: in vivo; details: foliage treatment 150 L/10 a; for Grass height: 26 days after treatment; for Dry weight of stems: harvested 4 months after treatment
Procedure: A commercially available Zoysia tenuifolia sod was cut to a size of 10×10 cm. Uniform volcanic ash soil (andosol) was introduced into a vessel (1/44,444×10 a) in a sufficient amount per pot, and a chemical fertilizer (N—P—K=8-8-8) was applied thereon in an amount, in terms of nitrogen, of 2.6 kg-N/10 a. The cut Zoysia tenuifolia sod was transplanted into the pot. […] The grass height was measured 26 days after the treatment, and thereby the dwarfing effect was investigated.

[3] = 5-aminolevulinic acid hydrochloride 600 mg/10 a and/or prohexadione calcium salt 20 g/10 a
[4] = 5-aminolevulinic acid hydrochloride 600 mg/10 a and/or paclobutrazol 36 g/10 a
[5] = 5-aminolevulinic acid hydrochloride 600 mg/10 a and/or flurprimidol 84 g/10 a
[6] = 5-aminolevulinic acid hydrochloride 600 mg/10 a and/or trinexapac-ethyl 20 g/10 a

| SMILES | Color system L* [1] | Color system b* [1] | Color system a* [1] | Plant count of lawn grass [1] [plants/9 cm^2] | Dry weight of shoots [2, 3] [g] | Grass height [2, 3] [cm] | Dry weight of stems [2, 3] [g] | Dry weight of shoots [2, 4] [g] | Grass height [2, 4] [cm] | Dry weight of stems [2, 4] [g] | Dry weight of shoots [2, 5] [g] | Dry weight of shoots [2, 6] [g] | Grass height [2, 5] [cm] | Grass height [2, 6] [cm] | Dry weight of stems [2, 5] [g] | Dry weight of stems [2, 6] [g] |
| --- | --- | --- | --- | --- | --- | --- | --- | --- | --- | --- | --- | --- | --- | --- | --- | --- |
| CCC(=O)C1=C([O-])CC(C(=O)[O-])CC1=O.[Ca+2] (centres unmarked) [Prohexadione calcium salt, calcium 3-oxido-5-oxo-4-propionyl-3-cyclohexene carboxylate] | 33.2 | 17.0 | −8.9 | 65.5 | 0.72 | 3.5 | 11.3 |  |  |  |  |  |  |  |  |  |
| CC(C)(C)[C@@H](O)[C@@H](Cc1ccc(Cl)cc1)n1cncn1 (racemic) [paclobutrazol, (2RS,3RS)-1-(4-chlorophenyl)-4,4-dimethyl-2-(1H-1,2,4-triazol-1-yl)pentan-3-ol] |  |  |  |  |  |  |  | 0.81 | 3.5 | 14.8 |  |  |  |  |  |  |
| Cl.NCC(=O)CCC(=O)O [5-aminolevulinic acid hydrochloride] | 34.0 | 17.6 | −8.8 | 54.2 | 0.90 | 4.2 | 12.0 | 0.90 | 4.2 | 12.0 | 0.90 | 0.90 | 4.2 | 4.2 | 12.0 | 12.0 |
| CCOC(=O)C1CC(=O)C(=C(O)C2CC2)C(=O)C1 (stereo not drawn) [Trinexapac-ethyl, ethyl=4-cyclopropyl-α-hydroxymethylene)-3,5-dioxocyclohexane carboxylate] |  |  |  |  |  |  |  |  |  |  |  | 0.44 |  | 3.5 |  | 12.8 |
